The values that follow come from patent US10577334B2, “Crystalline form E of tafamidis meglumine, process for preparation and use thereof” (Crystal Pharmatech Co., Ltd., priority 2016, dated 2020).

Molecules are shown by their SMILES. Structures can show the parent of a compound that is named as a salt. Where two headings read alike, the source gives them in different places. Where only a bound is given, the exact number is not on record here.

For data set [1] the following is noted: converts to liquid crystalline form B spontaneously when stored for some time; cited from earlier work.
For data set [2] the following is noted: cited from earlier work.
Data set [3] is described as follows: Hygroscopicity by dynamic vapor sorption (DVS). Type of data set: physicochemical. Particulars: for Hygroscopicity class: Chinese Pharmacopoeia 2015 guideline 9103, 25° C.; for Weight gain under 80% Relative Humidity: about 10 mg sample. As for the experimental part:
Dynamic vapor sorption (DVS) was applied to assess hygroscopicity of Form E and Form M in patent CN103781770B with about 10 mg of samples. The DVS plots of Form E and Form M were substantially as depicted in FIG. 8 and FIG. 9, respectively.
About hygroscopicity characterization description and definition of hygroscopicity (Chinese Pharmacopoeia 2015 edition general notices 9103 Drug hygroscopicity test guidelines, test at 25° C.+/−1° C., 80% Relative Humidity). • deliquescent: Sufficient water is absorbed to form a liquid; • very hygroscopic: Increase in mass is equal to or greater than 15 percent; • hygroscopic: Increase in mass is less than 15 percent and equal to or greater than 2 percent; • slightly hygroscopic: Increase in mass is less than 2 percent and equal to or greater than 0.2 percent. • no or almost no hygroscopic: Increase in mass is less than 0.2%.

A short description of data set [4]: Stability of solid form on storage, checked by XRPD. In kind it is physicochemical. Particulars: for Final Solid Form: 11 months, XRPD. The method, then:
Solid samples of Form E were stored under conditions of 25° C./60% relative humidity (RH) and 40° C./75% RH for 11 months and XRPD were tested. The XRPD patterns before and after storage were substantially as depicted in FIG. 7.
Form E remains stable for at least 11 months under conditions of 25° C./60% RH and 40° C./75% RH. […] The XRPD patterns overlay are substantially as depicted in FIG. 7, in which the top, middle and bottom patterns correspond to the initial sample, sample stored at 25° C./60% RH for 11 months and sample stored at 40° C./75% RH for 11 months, respectively.

`O=C(O)c1ccc2nc(-c3cc(Cl)cc(Cl)c3)oc2c1` [amorphous form A, 6-carboxy-2-(3,5-dichlorophenyl)-benzoxazole meglumine salt]: the “Stability (in words)” value in data set [1] is “poor stability”.

With `O=C(O)c1ccc2nc(-c3cc(Cl)cc(Cl)c3)oc2c1` [Liquid crystalline form B, 6-carboxy-2-(3,5-dichlorophenyl)-benzoxazole meglumine salt], the “Weight gain when stored at 90% relative humidity” value in data set [2] (90% relative humidity) is on record as “up to 25%”. In data set [2] (prior-art description), the “Hygroscopicity (in words)” value was “highly deliquescent”.

Regarding `O=C(O)c1ccc2nc(-c3cc(Cl)cc(Cl)c3)oc2c1` [Form M, 6-carboxy-2-(3,5-dichlorophenyl)-benzoxazole meglumine salt], the Hygroscopicity class entry in data set [3] (80% RH) was “hygroscopic (Increase in mass is less than 15 percent and equal to or greater than 2 percent)”. The “Weight gain under 75% RH” value in data set [3] (DVS, 75% RH) was 2.98%. Also, the “Weight gain under 80% Relative Humidity” value in data set [3] (DVS, 80% RH) is 2.98%-4.65%. Moreover, the “Weight gain under 80% RH, inferred from FIG. 8” value in data set [3] (DVS, 80% RH, inferred from the 75% RH value) is given as above 2.98%. Moreover, the “Hygroscopicity (in words)” value in data set [3] (background statement, "Studies show") was “high”.

As for `O=C(O)c1ccc2nc(-c3cc(Cl)cc(Cl)c3)oc2c1` [Form E, 6-carboxy-2-(3,5-dichlorophenyl)-benzoxazole meglumine salt], the “Time the form remains stable” value in data set [4] (25° C./60% RH and 40° C./75% RH) was “at least 11 months”. Moreover, the “Final Solid Form” value in data set [4] (25° C./60% RH) and in data set [4] (40° C./75% RH) was “Form E” in each case. In data set [3] (80% RH), the Hygroscopicity class entry is “slightly hygroscopic (Increase in mass is less than 2 percent and equal to or greater than 0.2 percent)”. Moreover, the “Weight gain under 80% Relative Humidity” value in data set [3] (DVS, 80% RH) was 1.82%.
